According to US20260053902A1, “COMPOSITIONS AND METHODS FOR REDUCING THE RATE OF TYPE 1 DIABETES” (Wisconsin Alumni Research Foundation, priority 2023, published 2026):
Ends that are not written are not given here. * marks the point of attachment. Cam = NC(=O)C*

How the values were obtained:
NOD mouse [1] = test: Rate of type 1 diabetes and final blood glucose in treated female NOD/ShiLtJ mice; type: in vivo; details: for rate of diabetes: EGCG IP in saline from age 3-5 days
Protocol: Mouse care: NOD/ShiLtJ mice were from The Jackson Laboratory (Bar Harbor, ME, USA). Mice were housed under standard conditions (20-24° C., humidity 30-70%, lighting regimen 12 h light/12 h dark) in the University of Wisconsin Biomedical Research Model Service that is a specific pathogen free level 1 facility. […] Mice had access to acidified water or water containing a chemical and/or green tea ad libitum. All procedures were approved by the Research Animal Resources and Compliance veterinary care authority of the University of Wisconsin, Madison.
Mouse treatments: Mice were given chemicals by intraperitoneal injection and/or by gavage and/or in drinking water. Water-soluble chemicals were administered in a solution of sodium chloride adjusted to have a final osmolality of 0.5-0.9%. Lipid soluble chemicals were dissolved in olive oil, peanut oil, corn oil, Mazola® oil or canola oil.
Starting at age 2 to 5 days mice were given injections on every third or fourth day for 2 to 4 weeks (usually 2 to 2.5 weeks) for the first 4 or 6 injections, and thereafter twice per week on Mondays and Thursdays until up to age 100 days. In some instances, pregnant and nursing mice were given chemicals in drinking water starting at about the middle or late pregnancy continuing during nursing and also continuing for various lengths of time to the offspring with or without additional intraperitoneal injections of chemicals. In other instances, chemicals were delivered by intraperitoneal injection into pregnant mice and continued after delivery into the mouse pups. Chemicals, for example EGCG, were also delivered in drinking water starting before birth to the pregnant mouse mother and/or continuing and/or starting ad libitum to the mice after birth usually until at least 100 days of age or throughout life.
Chemicals given in distilled drinking water were green tea (as a source of EGCG and other catechins) (Lipton® 100% Natural Green Tea). […] The tea water was given alone and also in combination with acetaminophen 2 g/l in the same water.
In most cases nondiabetic mice were euthanized at 40-41 weeks of age. Statistical significances of the frequencies of diabetes in the mice receiving test treatments were compared to the rates of diabetes in mice receiving control treatments and were calculated with the Chi square test and with the Chi square test with Yate's correction.
In most of the studies, control solutions and the other treatments were administered to the mice until they were 100 days old. Mice without diabetes were euthanized at 40-41 weeks of age. Diabetic mice were euthanized when their blood glucose levels reached a level that met the criteria for diabetes.
Administration of water-soluble chemicals serving as controls to NOD mice: Control solutions were the vehicles in which chemicals were dissolved. Control solutions were usually administered to mouse litters from the same shipments as the litters receiving test chemicals and/or litters from the same parents as the litters receiving test chemicals and were administered during the same month and year as treatments to the litters receiving test treatments. Statistical probabilities between the rates of diabetes in the litters receiving test treatments were compared to litters simultaneously receiving control treatments.

mice = details: mouse, in vivo
Excerpt: Intraperitoneal injections of water-soluble chemicals were given in normal saline (0.9% sodium chloride).

NOD mouse [2] = details: Fu et al.: 1 mM EGCG in drinking water, given after age 5 weeks; 12 mice; 32 weeks of age; cited from earlier work
[3] = 100 μmol/kg IP in saline, age 34 weeks
[4] = 20 μmol/kg IP in saline until age 58-61 days, age 34 weeks
[5] = 50 μmol/kg IP in saline from age 3-5 days until 59-63 or 93-95 days, age 41-44 weeks
[6] = 1 mM in drinking water, oral, from 1-4 days after birth
[7] = 60 day treatment (stopped at age 59-60 days), 50 μmol/kg IP in saline, age 40 weeks
[8] = IP 50 μmol/kg in saline til wean (21 days), then gavage 100 μmol/kg until 97-98 days
[9] = started post wean (21 days) until 99 days, 50 μmol/kg IP in ¾ saline
[10] = hydroxytyrosol alone, 325 μmol/kg first 5 weeks, 650 thereafter, IP in ¾ saline
[11] = menaquinone-4 200 μmol/kg IP in olive oil, age 40 weeks
[12] = menaquinone-4 200 μmol/kg IP in peanut oil
[13] = pure oleocanthal (oil) 50 μmol/kg, no carrier, IP til wean, then gavage
[14] = 2000-3500 μmol/kg IP in olive oil, age 40 weeks
[15] = 2000-3500 μmol/kg IP in peanut oil
[16] = started post wean, 3100-4000 μmol/kg IP in olive oil
[17] = quercetin 200 μmol/kg IP in olive oil, age 40 weeks
[18] = quercetin 200 μmol/kg IP in peanut oil
[19] = 1500 μmol/kg in olive oil, IP til wean (21 days), then gavage until 98 days, age 40 weeks
[20] = 2000 μmol/kg IP in olive oil, age 40 weeks
[21] = 200 μmol/kg in ¾ saline, IP til wean (21 days), then gavage until 55-62 days, age 35 weeks
[22] = 200 μmol/kg IP in saline, age 40 weeks
[23] = 20 ug once per week for first 3 weeks, then 40 μg once per week until 100-110 days, IP in 5% DMSO/95% saline, age 40 weeks
[24] = 40 μg twice/week for two weeks then once per week until 14 weeks old, IP in 5% DMSO/95% saline
[25] = 20 ug, then 40 μg after 3 weeks, IP in 5% DMSO/95% saline

O=C(O)/C=C/c1ccc(O)c(O)c1 [Caffeic Acid, reference compound]
Diabetes (%) (NOD mouse [1]; [3]): 65%
Final Blood Glucose (mean ± SE) diabetic (NOD mouse [1]; [3]): 611 ± 32 mg glucose/dl
Final Blood Glucose (mean ± SE) non-diabetic (NOD mouse [1]; [3]): 178 ± 15 mg glucose/dl

COC1=C(OC)C(=O)C(C)=CC1=O [CoQ0, 2,3-dimethoxy-5-methyl-1,4-benzoquinone, reference compound]
Diabetes (%) (NOD mouse [1]; [4]): 83%
Final Blood Glucose (mean ± SE) diabetic (NOD mouse [1]; [4]): 649 ± 53 mg glucose/dl
Final Blood Glucose (mean ± SE) non-diabetic (NOD mouse [1]; [4]): 183 ± 28 mg glucose/dl
toxicity (mice): toxicity to the mice

O=C(O[C@@H]1Cc2c(O)cc(O)cc2O[C@@H]1c1cc(O)c(O)c(O)c1)c1cc(O)c(O)c(O)c1 [EGCG, (2R,3R)-5,7-Dihydroxy-2-(3,4,5-trihydroxyphenyl)-3,4-dihydro-2H-1-benzopyran-3-yl 3,4,5-trihydroxybenzoate]
Diabetes (%) (NOD mouse [1]; [5]): 35%
Final Blood Glucose (mean ± SE) diabetic (NOD mouse [1]; [5]): 685 ± 34 mg glucose/dl
Final Blood Glucose (mean ± SE) non-diabetic (NOD mouse [1]; [5]): 159 ± 5 mg glucose/dl
Diabetes (%) (NOD mouse [1]; [6]): 40%
Final Blood Glucose (mean ± SE) diabetic (NOD mouse [1]; [6]): 708 ± 24 mg glucose/dl
Final Blood Glucose (mean ± SE) non-diabetic (NOD mouse [1]; [6]): 172 ± 4 mg glucose/dl
Diabetes (%) (NOD mouse [1]; [7]): 33%
Final Blood Glucose (mean ± SE) diabetic (NOD mouse [1]; [7]): 663 ± 57 mg glucose/dl
Final Blood Glucose (mean ± SE) non-diabetic (NOD mouse [1]; [7]): 145 ± 4 mg glucose/dl
rate of diabetes (NOD mouse [1]; treatment ending after 59-63 days, age 41-44 weeks): 38%
rate of diabetes (NOD mouse [1]; treatment ending after 93-95 days, age 41-44 weeks): 31%
Diabetes (%) (NOD mouse [1]; [8]): 50%
Final Blood Glucose (mean ± SE) diabetic (NOD mouse [1]; [8]): 624 ± 33 mg glucose/dl
Final Blood Glucose (mean ± SE) non-diabetic (NOD mouse [1]; [8]): 200 ± 12 mg glucose/dl
Diabetes (%) (NOD mouse [1]; [9]): 29%
Final Blood Glucose (mean ± SE) diabetic (NOD mouse [1]; [9]): 605 ± 59 mg glucose/dl
Final Blood Glucose (mean ± SE) non-diabetic (NOD mouse [1]; [9]): 166 ± 4 mg glucose/dl
Diabetes (%) (NOD mouse [1]; started post wean, 250 μmol/kg by gavage in water, mice 24-27 weeks old, study ongoing): 25%
mice that had diabetes (NOD mouse [2]): 25%

OCCc1ccc(O)c(O)c1 [Hydroxytyrosol, 4-(2-hydroxyethyl)benzene-1,2-diol]
Diabetes (%) (NOD mouse [1]; [10]): 59%
Final Blood Glucose (mean ± SE) diabetic (NOD mouse [1]; [10]): 672 ± 24 mg glucose/dl
Final Blood Glucose (mean ± SE) non-diabetic (NOD mouse [1]; [10]): 173 ± 12 mg glucose/dl

CC(C)=CCC/C(C)=C/CC/C(C)=C/CC/C(C)=C\CC1=C(C)C(=O)c2ccccc2C1=O [Menaquinone-4, 3-methyl-2-[(2Z,6E,10E)-3,7,11,15-tetramethylhexadeca-2,6,10,14-tetraenyl]naphthalene-1,4-dione, reference compound]
Diabetes (%) (NOD mouse [1]; 200 μmol/kg in olive oil, IP til wean (21 days), then gavage until 98 days, mice 24-30 weeks old, study ongoing): 25%
Diabetes (%) (NOD mouse [1]; 30 day treatment, 200 μmol/kg IP in olive oil, mice 20-40 weeks old, study ongoing): 32%
Diabetes (%) (NOD mouse [1]; 60 day treatment, 200 μmol/kg IP in olive oil, mice 34-36 weeks old, study ongoing): 4%
Diabetes (%) (NOD mouse [1]; [11]): 0%
Final Blood Glucose (mean ± SE) non-diabetic (NOD mouse [1]; [11]): 172 ± 15 mg glucose/dl
Diabetes (%) (NOD mouse [1]; [12]): 50%
Final Blood Glucose (mean ± SE) diabetic (NOD mouse [1]; [12]): 706 ± 25 mg glucose/dl
Final Blood Glucose (mean ± SE) non-diabetic (NOD mouse [1]; [12]): 164 ± 9 mg glucose/dl

C/C=C(/C=O)[C@@H](CC=O)CC(=O)OCCc1ccc(O)cc1 [Oleocanthal (oil)]
Diabetes (%) (NOD mouse [1]; [13]): 35%
Final Blood Glucose (mean ± SE) diabetic (NOD mouse [1]; [13]): 560 ± 61 mg glucose/dl
Final Blood Glucose (mean ± SE) non-diabetic (NOD mouse [1]; [13]): 178 ± 7 mg glucose/dl

CC1=C(C/C=C(\C)CCC[C@H](C)CCC[C@H](C)CCCC(C)C)C(=O)c2ccccc2C1=O [Phylloquinone, reference compound]
Diabetes (%) (NOD mouse [1]; 110 μmol/kg IP in olive oil): 38%
Final Blood Glucose (mean ± SE) diabetic (NOD mouse [1]; 110 μmol/kg IP in olive oil): 648 ± 37 mg glucose/dl
Final Blood Glucose (mean ± SE) non-diabetic (NOD mouse [1]; 110 μmol/kg IP in olive oil): 174 ± 5 mg glucose/dl
Diabetes (%) (NOD mouse [1]; [14]): 21%
Final Blood Glucose (mean ± SE) diabetic (NOD mouse [1]; [14]): 647 ± 27 mg glucose/dl
Final Blood Glucose (mean ± SE) non-diabetic (NOD mouse [1]; [14]): 163 ± 5 mg glucose/dl
Diabetes (%) (NOD mouse [1]; [15]): 40%
Final Blood Glucose (mean ± SE) diabetic (NOD mouse [1]; [15]): 646 ± 40 mg glucose/dl
Final Blood Glucose (mean ± SE) non-diabetic (NOD mouse [1]; [15]): 167 ± 10 mg glucose/dl
Diabetes (%) (NOD mouse [1]; [16]): 36%
Final Blood Glucose (mean ± SE) diabetic (NOD mouse [1]; [16]): 677 ± 20 mg glucose/dl
Final Blood Glucose (mean ± SE) non-diabetic (NOD mouse [1]; [16]): 156 ± 6 mg glucose/dl

O=c1c(O)c(-c2ccc(O)c(O)c2)oc2cc(O)cc(O)c12 [Quercetin]
Diabetes (%) (NOD mouse [1]; [17]): 26%
Final Blood Glucose (mean ± SE) diabetic (NOD mouse [1]; [17]): 610 ± 56 mg glucose/dl
Final Blood Glucose (mean ± SE) non-diabetic (NOD mouse [1]; [17]): 178 ± 7 mg glucose/dl
Diabetes (%) (NOD mouse [1]; [18]): 47%
Final Blood Glucose (mean ± SE) diabetic (NOD mouse [1]; [18]): 651 ± 25 mg glucose/dl
Final Blood Glucose (mean ± SE) non-diabetic (NOD mouse [1]; [18]): 171 ± 11 mg glucose/dl

CC1=C(C=O)C(C)(C)CC=C1 [Safranal, 2,6,6-Trimethylcyclohexa-1,3-diene-1-carbaldehyde]
Diabetes (%) (NOD mouse [1]; [19]): 36%
Final Blood Glucose (mean ± SE) diabetic (NOD mouse [1]; [19]): 595 ± 36 mg glucose/dl
Final Blood Glucose (mean ± SE) non-diabetic (NOD mouse [1]; [19]): 172 ± 8 mg glucose/dl
Diabetes (%) (NOD mouse [1]; [20]): 32%
Final Blood Glucose (mean ± SE) diabetic (NOD mouse [1]; [20]): 606 ± 60 mg glucose/dl
Final Blood Glucose (mean ± SE) non-diabetic (NOD mouse [1]; [20]): 159 ± 5 mg glucose/dl

C[S+]([O-])CCCCN=C=S (stereo not shown) [Sulforaphane, 1-Isothiocyanato-4-(methanesulfinyl)butane]
Diabetes (%) (NOD mouse [1]; [21]): 42%
Final Blood Glucose (mean ± SE) diabetic (NOD mouse [1]; [21]): 619 ± 37 mg glucose/dl
Final Blood Glucose (mean ± SE) non-diabetic (NOD mouse [1]; [21]): 154 ± 7 mg glucose/dl

CC(S)C(=O)NCC(=O)O (stereo not shown) [Tiopronin, reference compound]
Diabetes (%) (NOD mouse [1]; [22]): 74%
Final Blood Glucose (mean ± SE) diabetic (NOD mouse [1]; [22]): 685 ± 19 mg glucose/dl
Final Blood Glucose (mean ± SE) non-diabetic (NOD mouse [1]; [22]): 175 ± 12 mg glucose/dl

SHLVEALYLVCGEEG (SHLVEALYLVC(Cam)GEEG) [Ins B9-23 19CAM22R-E, insulin B chain 9-23 mimotope peptide treated with iodoacetamide to carboxyamidomethylate the cysteine residue at position 19]
Diabetes (%) (NOD mouse [1]; [23]): 17%
Final Blood Glucose (mean ± SE) diabetic (NOD mouse [1]; [23]): 681 ± 82 mg glucose/dl
Final Blood Glucose (mean ± SE) non-diabetic (NOD mouse [1]; [23]): 159 ± 6 mg glucose/dl

VEALYLVCEGEEG (VEALYLVC(Cam)EGEEG) [Ins B12-23 19CAM22R-E, insulin B12-23 mimotope peptide treated with iodoacetamide to carboxyamidomethylate the cysteine residue]
Diabetes (%) (NOD mouse [1]; [24]): 54%
Final Blood Glucose (mean ± SE) diabetic (NOD mouse [1]; [24]): 569 ± 70 mg glucose/dl
Final Blood Glucose (mean ± SE) non-diabetic (NOD mouse [1]; [24]): 166 ± 7 mg glucose/dl

VEALYLVCGERG (VEALYLVC(Cam)GERG) [Ins B12-23 19CAM]
Diabetes (%) (NOD mouse [1]; [25]): 47%
Final Blood Glucose (mean ± SE) diabetic (NOD mouse [1]; [25]): 679 ± 32 mg glucose/dl
Final Blood Glucose (mean ± SE) non-diabetic (NOD mouse [1]; [25]): 160 ± 6 mg glucose/dl
